2 sequences from patent US20250197864A1, “LNCRNA TRANSCRIPTS IN MELANOMAGENESIS” (The Regents of the University of California, priority 2021, published 2025) can be followed below.

The subject of one data set is AV4 melanoma cell line. The data set can be described thus: Cell viability assay (ATP quantitation). Type of data set: cell-based. Particulars: 50 nM, 5 days, vs non-targeting control. Put shortly:
(§1)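 Transfection used Lipofectamine 3000 with 50 nM final oligonucleotide unless otherwise specified; MEKi was added for combination work. Plates were read for total luminescence at day 3 (synergy) or day 5 (ASO only).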

Data set [1] deals with SW480 colon carcinoma cell line. In words: Cell viability assay (ATP quantitation). The data set is classed as cell-based. Particulars: 50 nM, 5 days, vs non-targeting control. Put shortly: as §1
Data set [2] has as its system MaMel30 melanoma cell line. In words: Cell viability assay (ATP quantitation). The data set is classed as cell-based. To be noted: 50 nM, 5 days, vs non-targeting control. The essentials:
as §1

The subject of data set [3] is SW1271 lung cancer cell line. The data set can be described thus: Cell viability assay (ATP quantitation). Particulars: 50 nM, 5 days, vs non-targeting control. Type of data set: cell-based. Put shortly: as §1
For a further data set, the system named is AV1 melanoma cell line. The data set can be described thus: Cell viability assay (ATP quantitation). The data set is classed as cell-based. Particulars: 50 nM, 5 days, vs non-targeting control. The essentials: as §1
The test system of data set [4] is H82 lung cancer cell line. In words: Cell viability assay (ATP quantitation). Type of data set: cell-based. To be noted: 50 nM, 5 days, vs non-targeting control. Put shortly:
as §1

The test system of data set [5] is U20S osteosarcoma cell line. The data set can be described thus: Cell viability assay (ATP quantitation). Type of data set: cell-based. To be noted: 50 nM, 5 days, vs non-targeting control. Put shortly: as §1
Data set [6] relates to WM3060 melanoma cell line. The data set can be described thus: Cell viability assay (ATP quantitation). The data set is classed as cell-based. To be noted: 50 nM, 5 days, vs non-targeting control. Put shortly: as §1
Data set [7] deals with Sk-Mel-5 melanoma cell line. The data set can be described thus: Cell viability assay (ATP quantitation). Type of data set: cell-based. Particulars: 50 nM, 5 days, vs non-targeting control. Put shortly:
as §1

The subject of data set [8] is L363 multiple myeloma cell line. In words: Cell viability assay (ATP quantitation). Particulars: 50 nM, 5 days, vs non-targeting control. The data set is classed as cell-based. Put shortly:
as §1

Data set [9] has as its system A-172 Glioblastoma cell line. The data set can be described thus: Cell viability assay (ATP quantitation). The data set is classed as cell-based. To be noted: 50 nM, 5 days, vs non-targeting control. Put shortly: as §1
Data set [10] deals with H2228 lung cancer cell line. In words: Cell viability assay (ATP quantitation). The data set is classed as cell-based. To be noted: 50 nM, 5 days, vs non-targeting control. The essentials:
as §1

For data set [11], the system named is U138-MG Glioblastoma cell line. In words: Cell viability assay (ATP quantitation). The data set is classed as cell-based. To be noted: 50 nM, 5 days, vs non-targeting control. The essentials:
as §1

The test system of data set [12] is H929 multiple myeloma cell line. The data set can be described thus: Cell viability assay (ATP quantitation). The data set is classed as cell-based. Particulars: 50 nM, 5 days, vs non-targeting control. The essentials: as §1
Data set [13] has as its system HCT116 colon carcinoma cell line. The data set can be described thus: Cell viability assay (ATP quantitation). To be noted: 50 nM, 5 days, vs non-targeting control. Type of data set: cell-based. Put shortly:
as §1

Data set [14] has as its system XG-1 multiple myeloma cell line. The data set can be described thus: Cell viability assay (ATP quantitation). Particulars: 50 nM, 5 days, vs non-targeting control. The data set is classed as cell-based. Put shortly: as §1
The test system of data set [15] is T98G Glioblastoma cell line. The data set can be described thus: Cell viability assay (ATP quantitation). Type of data set: cell-based. Particulars: 50 nM, 5 days, vs non-targeting control. The essentials:
as §1

Data set [16] deals with Sk-N-AS Neuroblastoma cell line. The data set can be described thus: Cell viability assay (ATP quantitation). Type of data set: cell-based. To be noted: 50 nM, 5 days, vs non-targeting control. The essentials:
as §1

Data set [17] concerns U87-MG Glioblastoma cell line. In words: Cell viability assay (ATP quantitation). The data set is classed as cell-based. Particulars: 50 nM, 5 days, vs non-targeting control. The essentials:
as §1

The subject of data set [18] is WM1366 melanoma cell line. The data set can be described thus: Cell viability assay (ATP quantitation). Type of data set: cell-based, human. To be noted: 50 nM, 5 days (120 hrs), vs non-targeting control. The essentials:
as §1

Another data set concerns D04 melanoma cell line. The data set can be described thus: Cell viability assay (ATP quantitation). The data set is classed as cell-based, human. Particulars: 50 nM, 5 days (120 hrs), vs non-targeting control. Put shortly:
as §1

Another data set has as its system MM415 melanoma cell line. In words: Cell viability assay (ATP quantitation). To be noted: 50 nM, 5 days (120 hrs), vs non-targeting control. Type of data set: cell-based, human. Put shortly: as §1
Data set [19] concerns Sk-Mel-28 melanoma cell line. The data set can be described thus: Cell viability assay (ATP quantitation). Type of data set: cell-based, human. To be noted: 50 nM, 5 days (120 hrs), vs non-targeting control. Put shortly:
as §1

For data set [20], the system named is Hs852.T primary melanoma cell line. The data set can be described thus: Cell viability assay (ATP quantitation). The data set is classed as cell-based, human. Particulars: 50 nM, 5 days (120 hrs), vs non-targeting control. The essentials: as §1
For data set [21], the system named is WM3211 melanoma cell line. The data set can be described thus: Cell viability assay (ATP quantitation). To be noted: 50 nM, 5 days (120 hrs), vs non-targeting control. Type of data set: cell-based, human. Put shortly:
as §1

For the next data set, the system named is VMM39 melanoma cell line. The data set can be described thus: Cell viability assay (ATP quantitation). The data set is classed as cell-based, human. To be noted: 50 nM, 5 days (120 hrs), vs non-targeting control. Put shortly:
as §1

The test system of data set [22] is WM3629 melanoma cell line. In words: Cell viability assay (ATP quantitation). The data set is classed as cell-based, human. Particulars: 50 nM, 5 days (120 hrs), vs non-targeting control. The essentials:
as §1

In data set [23] the test system is Sk-Mel-2 melanoma cell line. In words: Cell viability assay (ATP quantitation). Particulars: 50 nM, 5 days (120 hrs), vs non-targeting control. The data set is classed as cell-based, human. The essentials: as §1
Data set [24] relates to AV5 primary melanoma cell line. The data set can be described thus: Cell viability assay (ATP quantitation). Particulars: 50 nM, 5 days (120 hrs), vs non-targeting control. Type of data set: cell-based, human. The essentials: as §1
Data set [25] concerns D04RM trametinib resistant melanoma cell line. In words: Cell viability assay (ATP quantitation). Type of data set: cell-based. Particulars: 50 nM, 5 days, vs non-targeting control. The source says:
(§2) Human melanoma cell line VMM39 was purchased from American Type Culture Collection (ATCC). Human melanoma cell lines D04, MM415, WM1366, WM3629, WM3211, Sk-Mel-2 and Sk-Mel-28 were a generous gift from Boris Bastian at the University of California, San Francisco. Primary human melanoma cell line Hs852.T was purchased from the Cell Culture Core Facility (CCCF) at the University of California, San Francisco. Primary human melanoma cell line AV5 was obtained from metastasis of a melanoma patient. All experimental protocols were approved by UCSF Human Research Protection Program Institutional Review Board (IRB #12-0948), all patients signed informed consent, and methods were carried out in accordance with relevant guidelines and regulations. Resistant cell lines DO4RM, MM415RM, Sk-Mel-2RM and WM3629RM were established as previously described. [Sanlorenzo, M. et al., The lincRNA MIRAT binds to IQGAPI and modulates the MAPK pathway in NRAS mutant melanoma. Sci Rep 8, 10902 (2018).] Primary human melanocytic cell lines (PHM) from infant foreskin of five healthy donors were available in our cell repository and pooled. Melanoma cell lines were maintained in RPMI 1640 media supplemented with 10% (vol/vol) heat inactivated fetal bovine serum. Melanocytes were maintained in M254 medium with HMGS supplements (1× final solution). All cell lines were incubated at 37° C. under 5% CO2.
(§3) EsiRNA, siRNA and ASO GapmeRs were transfected in a final concentration of 50 nM unless mentioned otherwise and the transfection reagent Lipofectamine 3000 (2 ul/ml) was added according to the manufacturer's instructions.
(§4) Dependent on cell doubling time, 0.7-2×10^^3 cells were seeded in 96 well plates. 1 day after seeding cells were incubated in media with oligonucleotide concentration and/or MEKi and transfection reagent. 3 (synergy experiments) or 5 (solely ASO) days after transfection Total luminescence was measured on the SynergyHT plate reader (BioTek) using Gen5 software.

Data set [26] deals with MM415RM trametinib resistant melanoma cell line. The data set can be described thus: Cell viability assay (ATP quantitation). The data set is classed as cell-based. To be noted: 50 nM, 5 days, vs non-targeting control.
Excerpt: as §2, §3, §4

In data set [27] the test system is Sk-Mel-2-RM trametinib resistant melanoma cell line. The data set can be described thus: Cell viability assay (ATP quantitation). The data set is classed as cell-based. Particulars: 50 nM, 5 days, vs non-targeting control.
Excerpt: as §2, §3, §4

The test system of data set [28] is WM3629RM trametinib resistant melanoma cell line. In words: Cell viability assay (ATP quantitation). The data set is classed as cell-based. Particulars: 50 nM, 5 days, vs non-targeting control.
Excerpt: as §2, §3, §4

Data set [29] deals with D04 xenograft tumors. In words: Intravenous in vivo treatment, D04 xenograft. To be noted: D04 tumors in mice; 700 μg twice a week, intravenous tail vein, no transfection reagent; vs non-targeting control ASO. The procedure:
(§5) In 4- to 6-week-old NOD.Cg-Prkdcscid Il2rgtm1Wjl/SzJ mice, D04 cells in 150 1 of PBS and 50 1 of Matrigel were subcutaneously injected on the right and left posterior dorsal flank of 4- to 6-week-old homozygous nude Foxn1nu/Foxn1nu mice (Stock.no 007850). Mice were obtained from JAX®. Tumor size was measured using a digital caliper and the formula 0.5×(length×(width^2)) was used to calculate tumor volume. Mice were treated twice a week with 700 μg of (SEQ ID NO: 16) or non-targeting control-ASO. No transfection reagent was co-applied. ASO injections were applied intravenously as tail vein injections. Mice were weighted twice a week and observed for signs of distress or disorder.

The test system of data set [30] is D04 xenograft tumors. The data set can be described thus: Intratumoral in vivo treatment, D04 xenograft. To be noted: D04 tumors in mice; 400 μg twice a week into the tumor mass, no transfection reagent; vs non-targeting control ASO. The procedure:
as §5, with “Il2rgtm1Wjl/SzJ mice D04,” for “Il2rgtm1Wjl/SzJ mice, D04”, “and 501” for “and 50 1”, “right” for “right and left”, “with 400” for “with 700”, “applied into the tumor mass.” for “applied intravenously as tail vein injections.”

Data set [31] relates to sarcoma cell line SK-LMS-1. In words: Cell viability assay (ATP quantitation). The data set is classed as cell-based. To be noted: SK-LMS-1 sarcoma; 50 nM, 120 hrs; Lipofectamine3000 2 ul/ml; vs non-targeting control ASO. The procedure:
as §3, §4
(§6) Cell viability was compared to treatment with non-targeting control ASO-treatment. Lipofectamine3000 concentration was 2 ul/ml.

Data set [32] relates to hepatocellular carcinoma cell line HepG2. In words: Cell viability assay (ATP quantitation). Type of data set: cell-based. Particulars: 50 nM, 120 hrs, Lipofectamine3000 2 ul/ml, vs non-targeting control ASO. Here is the method:
as §3, §4, §6

Turning to “ACATGGATTGGTAGTG (QIAGEN GapmeR, modification pattern not given here) [SEQ ID NO: 17, Antisense oligonucleotide targeting RP11-7011.3-001, 002 and 003]”, the cell viability decrease result (with AV4 melanoma cell line; in data set [1]; in [2]; in data set [3]; with AV1 melanoma cell line; in [4]) was “significant cell viability decrease” throughout. For the same sequence, the cell viability decrease result in [5], in data set [6], in data set [7], in [8], in [9] and in data set [10] was “significant cell viability decrease” each time. In addition, the cell viability decrease result in [11], in data set [12], in data set [13], in [14], in [15] and in data set [16] was “significant cell viability decrease” throughout. In addition, the cell viability decrease result (in data set [17]; in [18]; in the data set with D04 melanoma cell line; in the data set on MM415 melanoma cell line; in data set [19]; in data set [20]) was “significant cell viability decrease” in each case. The cell viability decrease result (in data set [21]; in the data set with VMM39 melanoma cell line; in data set [22]; in data set [23]; in [24]; in [25]) was “significant cell viability decrease” each time. The cell viability decrease result in data set [26], in data set [27] and in data set [28] was “significant cell viability decrease” in each case.

Consider “TGCGCGGCGGAAAGAA (QIAGEN GapmeR, modification pattern not given here) [SEQ ID NO: 16, ASO targeting AC004540.4 (TRASH), intronic region of Isoform 2; used in vivo]”, for which the cell viability decrease result (in data set [18]; with D04 melanoma cell line; in the data set with MM415 melanoma cell line; in [19]; in [20]; in data set [21]) was “significant cell viability decrease” in each case. Also, the cell viability decrease result (with VMM39 melanoma cell line; in data set [22]; in data set [23]; in data set [24]; in data set [31]; in data set [32]) was “significant cell viability decrease” each time. Further, the tumor growth entry in the data set on D04 xenograft tumors [29] and in the data set with D04 xenograft tumors [30] was “significantly reduced tumor growth” in each case.
